Laboratory results: US11345694B2, “Antibacterial compounds” (DISCUVA LTD., priority 2017, dated 2022)
Converted amounts (≈) assume the structure as drawn.

What was measured:
[1] = tested on: human hepatocarcinoma cell line ATCC HB-8065 (HepG2); assay: Human cell viability (CellTiter-Glo); assay type: cell-based; conditions: Homo sapiens; HepG2 cells, 24 h incubation, CellTiter-Glo luminescence, 0.2-100 μM; read-out: IC50 values against the HepG2 cell line
Procedure: Compounds are assessed for potential non-specific cytotoxic effects against the human hepatocarcinoma cell line ATCC HB-8065 (HepG2). HepG2 cells are seeded at 20,000 cells/well in 96-well microtitre plates in minimal essential medium (MEM) supplemented with a final concentration of 10% FBS. After 24 h, compound dilutions are prepared in MEM supplemented with a final concentration of 1% FBS, and added to the cells. Compounds are tested in two-fold serial dilutions over a final concentration range of 0.2-100 μM in a final DMSO concentration of 1% vol/vol. Thioridazine is used as a positive control. Cells are incubated with compound at 37° C. and 5% CO2 for a further 24 h, after which time the CellTiter-Glo reagent (Promega) is added. Luminescence is measured on a Perkin Elmer Envision plate reader. Data are analysed using a 4 parameter logistic regression to determine the concentration of compound that inhibits cell viability by fifty percent (IC50).

[2] = tested on: Staphylococcus aureus ATCC 35556 (SA); assay: MIC broth microdilution; assay type: cell-based; conditions: ATCC35556
Procedure: (§1) Minimum Inhibitory Concentrations (MICs) versus planktonic bacteria are determined by the broth microdilution procedure according to the guidelines of the Clinical and Laboratory Standards Institute (Clinical and Laboratory Standards Institute. Methods for Dilution Antimicrobial Susceptibility Tests for Bacteria That Grow Aerobically; Approved Standard-tenth Edition. CLSI document M07-A10, 2015). The broth dilution method involves a two-fold serial dilution of compounds in 96-well microtitre plates, giving a final concentration range of 0.39-200 μM and a maximum final concentration of 2% DMSO. The bacterial strains tested include Escherichia coli K12 (EC), E. coli NCTC 13441 (UPEC), Staphylococcus aureus ATCC 35556 (SA), Acinetobacter baumannii ATCC 17978 (AB), Pseudomonas aeruginosa ATCC 33359 (PA), Enterobacter cloacae DSM 30054 (Ed), Serratia marcescens SL1344 (Sm), Salmonella typhimurium XNAA5 (St), Klebsiella pneumoniae ATCC 10031 (KP2), K. pneumoniae NCTC 13438 (KP1), K. pneumoniae ATCC 700603 (KP3), Klebsiella pneumoniae ATCC 51504 (KP4), K. pneumoniae H154680676 (KP5), K. pneumoniae H154020667 (KP6), K. pneumoniae H154640784 (KP7), K. pneumoniae H154600588 (KP8), K. pneumoniae H154300688 (KP9), K. pneumoniae H151440671 (KP10). Strains are grown in cation-adjusted Müller-Hinton broth or on Luria Bertoni agar at 37° C. in an ambient atmosphere. The MIC is determined as the lowest concentration of compound that inhibits growth following a 20-24 hour incubation period.

[3] = tested on: Acinetobacter baumannii ATCC 17978 (AB); assay: MIC broth microdilution; assay type: cell-based; conditions: ATCC17978
Procedure: as §1

[4] = tested on: Klebsiella pneumoniae ATCC 10031 (KP2); assay: MIC broth microdilution; assay type: cell-based; conditions: ATCC10031
Procedure: as §1

[5] = tested on: Pseudomonas aeruginosa ATCC 33359 (PA); assay: MIC broth microdilution; assay type: cell-based; conditions: ATCC33359
Procedure: as §1

[6] = tested on: Escherichia coli K12 (EC); assay: MIC broth microdilution; assay type: cell-based
Procedure: as §1

[7] = tested on: E. coli NCTC 13441 (UPEC); assay: MIC broth microdilution; assay type: cell-based, Escherichia coli; conditions: Escherichia coli, NCTC13441
Procedure: as §1

[8] = tested on: K. pneumoniae NCTC 13438 (KP1); assay: MIC broth microdilution; assay type: cell-based, Klebsiella pneumoniae; conditions: Klebsiella pneumoniae, NCTC13438
Procedure: as §1

Cc1cc(-c2sc(N)nc2-c2ccc3c(c2)OCCO3)ccn1 [Example 80, 4-(2,3-Dihydrobenzo[b][1,4]dioxin-6-yl)-5-(2-methylpyridin-4-yl)thiazol-2-amine] was tested, and the IC50 [1] was > 100 µM, the MIC [2] was > 100 µM and the MIC [3] was > 100 µM. For the same compound, the MIC [4] was 1 to 10 µM (≈ 0.325 to 3.25 µg/mL), the MIC [5] was > 100 µM and the MIC [6] was > 100 µM. For the same compound, the MIC [7] was > 100 µM and the MIC [8] was > 100 µM.

In the case of Cc1cc(-c2[nH]c(N)nc2-c2ccc3c(c2)CC(C)O3)ccn1 (racemic) [Example 41, 4-(2-Methyl-2,3-dihydrobenzofuran-5-yl)-5-(2-methylpyridin-4-yl)-1H-imidazol-2-amine], the IC50 [1] is reported as > 100 µM, the MIC [2] is reported as > 100 µM and the MIC [3] is reported as > 100 µM. The MIC [4] was ≤ 1 µM, the MIC [5] was > 100 µM and the MIC [6] was ≤ 1 µM. The MIC [7] was ≤ 1 µM and the MIC [8] was 1 to 10 µM (≈ 0.306 to 3.06 µg/mL).

CNc1nc(-c2ccc3c(c2)OCCO3)c(-c2ccnc(C)c2)[nH]1 [Example 74, 4-(2,3-dihydrobenzo[b][1,4]dioxin-6-yl)-N-methyl-5-(2-methylpyridin-4-yl)-1H-imidazol-2-amine] was tested, and the IC50 [1] was > 100 µM, the MIC [2] was > 100 µM and the MIC [3] was > 100 µM. For the same compound, the MIC [4] was ≤ 1 µM, the MIC [5] was > 100 µM and the MIC [6] was 1 to 10 µM (≈ 0.322 to 3.22 µg/mL). It also gave an MIC [7] of 1 to 10 µM (≈ 0.322 to 3.22 µg/mL) and an MIC [8] of 10 to 100 µM (≈ 3.22 to 32.2 µg/mL).

In the case of COc1ccc(-c2nc(N)[nH]c2-c2ccnc(C)c2)cn1 [Example 2, 4-(6-Methoxypyridin-3-yl)-5-(2-methylpyridin-4-yl)-1H-imidazol-2-amine], the IC50 [1] is reported as > 100 µM, the MIC [2] is reported as > 100 µM and the MIC [3] is reported as > 100 µM. The MIC [4] was ≤ 1 µM, the MIC [5] was > 100 µM and the MIC [6] was 1 to 10 µM (≈ 0.281 to 2.81 µg/mL). For the same compound, the MIC [7] was 1 to 10 µM (≈ 0.281 to 2.81 µg/mL) and the MIC [8] was 10 to 100 µM (≈ 2.81 to 28.1 µg/mL).

For CC(=O)N1CCOc2ccc(-c3nc(N)[nH]c3-c3ccnc(C)c3)cc21 [Example 63, 1-(6-(2-Amino-5-(2-methylpyridin-4-yl)-1H-imidazol-4-yl)-2,3-dihydro-4H-benzo[b][1,4]oxazin-4-yl)ethan-1-one], the IC50 [1] was > 100 µM, the MIC [2] was > 100 µM and the MIC [3] was > 100 µM. The MIC [4] was 1 to 10 µM (≈ 0.349 to 3.49 µg/mL), the MIC [5] was > 100 µM and the MIC [6] was 10 to 100 µM (≈ 3.49 to 34.9 µg/mL). The MIC [7] was 10 to 100 µM (≈ 3.49 to 34.9 µg/mL) and the MIC [8] was > 100 µM.

CNC(=O)c1nc(-c2ccnc(C)c2)c(-c2ccc3c(c2)OCCO3)[nH]1 [Example 85, 5-(2,3-Dihydrobenzo[b][1,4]dioxin-6-yl)-N-methyl-4-(2-methylpyridin-4-yl)-1H-imidazole-2-carboxamide] was tested, and the IC50 [1] was > 100 µM, the MIC [2] was > 100 µM and the MIC [3] was > 100 µM. The MIC [4] was 1 to 10 µM (≈ 0.35 to 3.5 µg/mL), the MIC [5] was > 100 µM and the MIC [6] was > 100 µM. The MIC [7] was > 100 µM and the MIC [8] was > 100 µM.

For Cc1cc(-c2nc(N)[nH]c2-c2ccc3c(c2)N(CCO)CCO3)ccn1 [Example 90, 2-(6-(2-Amino-4-(2-methylpyridin-4-yl)-1H-imidazol-5-yl)-2,3-dihydro-4H-benzo[b][1,4]oxazin-4-yl)ethan-1-ol], the IC50 [1] was > 100 µM, the MIC [2] was > 100 µM and the MIC [3] was > 100 µM. The MIC [4] was ≤ 1 µM, the MIC [5] was > 100 µM and the MIC [6] was 1 to 10 µM (≈ 0.351 to 3.51 µg/mL). The MIC [7] was ≤ 1 µM and the MIC [8] was 1 to 10 µM (≈ 0.351 to 3.51 µg/mL).

In the case of Cc1cc(-c2[nH]c(N)nc2-c2ccc3c(c2)N(CCO)C(=O)CO3)ccn1 [Example 66, 6-(2-Amino-4-(2-methylpyridin-4-yl)-1H-imidazol-5-yl)-4-(2-hydroxyethyl)-2H-benzo[b][1,4]oxazin-3(4H)-one], the IC50 [1] is reported as > 100 µM, the MIC [2] is reported as > 100 µM and the MIC [3] is reported as > 100 µM. The MIC [4] was ≤ 1 µM, the MIC [5] was > 100 µM and the MIC [6] was 1 to 10 µM (≈ 0.365 to 3.65 µg/mL). It also gave an MIC [7] of 1 to 10 µM (≈ 0.365 to 3.65 µg/mL) and an MIC [8] of 10 to 100 µM (≈ 3.65 to 36.5 µg/mL).

In the case of Cc1cc(-c2nc(N)[nH]c2-c2ccc(OCC3CC3)c(F)c2)ccn1 [Example 13, 5-(4-(Cyclopropylmethoxy)-3-fluorophenyl)-4-(2-methylpyridin-4-yl)-1H-imidazol-2-amine], the IC50 [1] is reported as 25 to 100 µM, the MIC [2] is reported as > 100 µM and the MIC [3] is reported as > 100 µM. For the same compound, the MIC [4] was ≤ 1 µM, the MIC [5] was > 100 µM and the MIC [6] was 1 to 10 µM (≈ 0.338 to 3.38 µg/mL). The MIC [7] was 1 to 10 µM (≈ 0.338 to 3.38 µg/mL) and the MIC [8] was 10 to 100 µM (≈ 3.38 to 33.8 µg/mL).
